In ChEMBL document CHEMBL1201862, “PubChem BioAssay data set” (2004):
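Compound exposure: 48 hours, 5 concentrations, 96-well plates. The concentration for 50% growth inhibition is given as GI50.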 Activity calls are given as the source filed them. Cut-off read from the data, not from the text of the source: active = GI50 up to about 1.1 µM and inactive = higher.

Key:
Assay in all cases: DTP human tumour cell line panel, 48 h
786-0 = test system: 786-0
A498 = test system: A498
A549 = test system: A549
ACHN = test system: ACHN
BT-549 = test system: BT-549
CAKI-1 = test system: CAKI-1
COLO 205 = test system: COLO 205
DU-145 = test system: DU-145
EKVX = test system: EKVX
HCC 2998 = test system: HCC 2998
HCT-116 = test system: HCT-116
HCT-15 = test system: HCT-15
HOP-62 = test system: HOP-62
HOP-92 = test system: HOP-92
HT-29 = test system: HT-29
Hs-578T = test system: Hs-578T
IGROV-1 = test system: IGROV-1
K562 = test system: K562
KM12 = test system: KM12
LOX IMVI = test system: LOX IMVI
M14 = test system: M14
MCF7 = test system: MCF7
MDA-MB-231 = test system: MDA-MB-231
MDA-MB-435 = test system: MDA-MB-435
MDA-N = test system: MDA-N
MOLT-4 = test system: MOLT-4
Malme-3M = test system: Malme-3M
NCI-H23 = test system: NCI-H23
NCI-H460 = test system: NCI-H460
NCI-H522 = test system: NCI-H522
NCI/ADR-RES = test system: NCI/ADR-RES
OVCAR-3 = test system: OVCAR-3
OVCAR-4 = test system: OVCAR-4
OVCAR-5 = test system: OVCAR-5
PC-3 = test system: PC-3
RPMI-8226 = test system: RPMI-8226
RXF 393 = test system: RXF 393
SF-268 = test system: SF-268
SF-295 = test system: SF-295
SF-539 = test system: SF-539
SK-MEL-28 = test system: SK-MEL-28
SK-MEL-2 = test system: SK-MEL-2
SK-MEL-5 = test system: SK-MEL-5
SK-OV-3 = test system: SK-OV-3
SN12C = test system: SN12C
SNB-19 = test system: SNB-19
SNB-75 = test system: SNB-75
SR = test system: SR
SW-620 = test system: SW-620
T47D = test system: T47D
TK-10 = test system: TK-10
U-251 = test system: U-251
UACC-257 = test system: UACC-257
UACC-62 = test system: UACC-62
UO-31 = test system: UO-31
CCRF-CEM = test system: CCRF-CEM
HL-60 = test system: HL-60
NCI-H226 = test system: NCI-H226
OVCAR-8 = test system: OVCAR-8

In the case of `COc1cc2c(cc1OCCCC(=O)Nc1cc(C(=O)NCCCN(C)C)n(C)n1)N=CC1CCCN1C2=O` (stereo not given), the GI50 (786-0) is reported as 6.46 µM (inactive), the GI50 (A498) is reported as 2.82 µM (inactive) and the GI50 (A549) is reported as > 19.7 µM (inactive). The GI50 (ACHN) was 6.44 µM (inactive), the GI50 (BT-549) was 9.75 µM (inactive) and the GI50 (CAKI-1) was 21.6 µM (inactive). For the same compound, the GI50 (COLO 205) was 8.93 µM (inactive), the GI50 (DU-145) was 12.9 µM (inactive) and the GI50 (EKVX) was > 47.4 µM (inactive). The GI50 (HCC 2998) was 11.1 µM (inactive), the GI50 (HCT-116) was 12.9 µM (inactive) and the GI50 (HCT-15) was 8.55 µM. The GI50 (HOP-62) was > 20.8 µM (inactive), the GI50 (HOP-92) was 6.56 µM (inactive) and the GI50 (HT-29) was 7.31 µM (inactive). The GI50 (Hs-578T) was 11 µM (inactive), the GI50 (IGROV-1) was 6.7 µM (inactive) and the GI50 (K562) was 0.123 µM (active). The GI50 (KM12) was > 100 µM (inactive), the GI50 (LOX IMVI) was 7.71 µM (inactive) and the GI50 (M14) was 8.34 µM (inactive). The GI50 (MCF7) was 10.1 µM (inactive), the GI50 (MDA-MB-231) was 19.7 µM (inactive) and the GI50 (MDA-MB-435) was 40.9 µM (inactive). The GI50 (MDA-N) was 23.3 µM (inactive), the GI50 (MOLT-4) was 0.347 µM (active) and the GI50 (Malme-3M) was 6.97 µM (inactive). For the same compound, the GI50 (NCI-H23) was 11.5 µM (inactive), the GI50 (NCI-H460) was 9.89 µM (inactive) and the GI50 (NCI-H522) was 5.37 µM (inactive). For the same compound, the GI50 (NCI/ADR-RES) was > 33.5 µM (inactive), the GI50 (OVCAR-3) was 27.5 µM (inactive) and the GI50 (OVCAR-4) was 6.44 µM (inactive). The GI50 (OVCAR-5) was 10.5 µM (inactive), the GI50 (PC-3) was 17.1 µM (inactive) and the GI50 (RPMI-8226) was 5.66 µM (inactive). For the same compound, the GI50 (RXF 393) was 9.18 µM (inactive), the GI50 (SF-268) was 16.2 µM (inactive) and the GI50 (SF-295) was > 100 µM (inactive). The GI50 (SF-539) was 9.04 µM (inactive), the GI50 (SK-MEL-28) was 5.46 µM (inactive) and the GI50 (SK-MEL-2) was 10.8 µM (inactive). The GI50 (SK-MEL-5) was 5.68 µM (inactive), the GI50 (SK-OV-3) was > 42.2 µM (inactive) and the GI50 (SN12C) was 7.11 µM (inactive). The GI50 (SNB-19) was 10 µM (inactive), the GI50 (SNB-75) was 7.85 µM (inactive) and the GI50 (SR) was 0.213 µM (active). The GI50 (SW-620) was 8.63 µM (inactive), the GI50 (T47D) was 9.66 µM (inactive) and the GI50 (TK-10) was 7.4 µM (inactive). For the same compound, the GI50 (U-251) was 8.77 µM (inactive), the GI50 (UACC-257) was 7.45 µM (inactive) and the GI50 (UACC-62) was 4.24 µM (inactive). The GI50 (UO-31) was 8.65 µM (inactive).
With `CCCCNS(=O)(=O)c1n[nH]c(=O)[nH]c1=O` the GI50 (786-0) was > 100 µM (inactive), the GI50 (A498) was > 100 µM (inactive) and the GI50 (A549) was > 100 µM (inactive). The GI50 (ACHN) was > 100 µM (inactive), the GI50 (BT-549) was > 100 µM (inactive) and the GI50 (CAKI-1) was > 100 µM (inactive). The GI50 (CCRF-CEM) was 14.1 µM (inactive), the GI50 (COLO 205) was > 100 µM (inactive) and the GI50 (DU-145) was > 100 µM (inactive). The GI50 (EKVX) was > 100 µM (inactive), the GI50 (HCT-116) was > 100 µM (inactive) and the GI50 (HCT-15) was over 100 µM. The GI50 (HL-60) was > 100 µM (inactive), the GI50 (HOP-62) was 23.5 µM (inactive) and the GI50 (HT-29) was > 100 µM (inactive). The GI50 (Hs-578T) was > 100 µM (inactive), the GI50 (IGROV-1) was > 100 µM (inactive) and the GI50 (K562) was > 100 µM (inactive). The GI50 (KM12) was > 100 µM (inactive), the GI50 (LOX IMVI) was > 100 µM (inactive) and the GI50 (M14) was > 100 µM (inactive). The GI50 (MCF7) was > 100 µM (inactive), the GI50 (MDA-MB-231) was > 100 µM (inactive) and the GI50 (MDA-MB-435) was > 100 µM (inactive). For the same compound, the GI50 (MDA-N) was > 100 µM (inactive), the GI50 (MOLT-4) was > 100 µM (inactive) and the GI50 (Malme-3M) was > 100 µM (inactive). The GI50 (NCI-H226) was > 100 µM (inactive), the GI50 (NCI-H23) was > 100 µM (inactive) and the GI50 (NCI-H460) was > 100 µM (inactive). The GI50 (NCI-H522) was > 100 µM (inactive), the GI50 (NCI/ADR-RES) was > 100 µM (inactive) and the GI50 (OVCAR-3) was > 100 µM (inactive). The GI50 (OVCAR-4) was > 100 µM (inactive), the GI50 (OVCAR-5) was > 100 µM (inactive) and the GI50 (OVCAR-8) was > 100 µM (inactive). The GI50 (PC-3) was > 100 µM (inactive), the GI50 (RPMI-8226) was > 100 µM (inactive) and the GI50 (RXF 393) was > 100 µM (inactive). The GI50 (SF-268) was > 100 µM (inactive), the GI50 (SF-295) was 16.9 µM (inactive) and the GI50 (SF-539) was > 100 µM (inactive). For the same compound, the GI50 (SK-MEL-28) was > 100 µM (inactive), the GI50 (SK-MEL-2) was > 100 µM (inactive) and the GI50 (SK-MEL-5) was > 100 µM (inactive). The GI50 (SK-OV-3) was 17.6 µM (inactive), the GI50 (SN12C) was > 100 µM (inactive) and the GI50 (SNB-19) was > 100 µM (inactive). For the same compound, the GI50 (SNB-75) was 82.6 µM (inactive), the GI50 (SR) was > 100 µM (inactive) and the GI50 (SW-620) was > 100 µM (inactive). For the same compound, the GI50 (T47D) was > 100 µM (inactive), the GI50 (U-251) was > 100 µM (inactive) and the GI50 (UACC-62) was > 100 µM (inactive). The GI50 (UO-31) was > 100 µM (inactive).
`Cc1ccc2c(c1)NC(=O)CC(c1ccccc1)=N2` was tested, and the GI50 (786-0) was > 100 µM (inactive), the GI50 (A498) was > 100 µM (inactive) and the GI50 (A549) was 81.7 µM (inactive). The GI50 (ACHN) was > 100 µM (inactive), the GI50 (BT-549) was > 100 µM (inactive) and the GI50 (CAKI-1) was > 100 µM (inactive). For the same compound, the GI50 (DU-145) was > 100 µM (inactive), the GI50 (EKVX) was > 100 µM (inactive) and the GI50 (HCC 2998) was > 100 µM (inactive). For the same compound, the GI50 (HCT-116) was 61.5 µM (inactive), the GI50 (HCT-15) was 61.4 µM and the GI50 (HOP-62) was > 100 µM (inactive). The GI50 (HOP-92) was > 100 µM (inactive), the GI50 (HT-29) was > 100 µM (inactive) and the GI50 (Hs-578T) was > 100 µM (inactive). The GI50 (IGROV-1) was > 100 µM (inactive), the GI50 (K562) was 5.18 µM (inactive) and the GI50 (KM12) was 43.9 µM (inactive). For the same compound, the GI50 (LOX IMVI) was > 100 µM (inactive), the GI50 (M14) was > 100 µM (inactive) and the GI50 (MCF7) was 71.8 µM (inactive). The GI50 (MDA-MB-231) was 23.7 µM (inactive), the GI50 (MDA-MB-435) was 31 µM (inactive) and the GI50 (MDA-N) was 23.7 µM (inactive). For the same compound, the GI50 (MOLT-4) was 28.6 µM (inactive), the GI50 (Malme-3M) was > 100 µM (inactive) and the GI50 (NCI-H226) was > 100 µM (inactive). For the same compound, the GI50 (NCI-H23) was > 100 µM (inactive), the GI50 (NCI-H460) was > 100 µM (inactive) and the GI50 (NCI-H522) was 45.6 µM (inactive). For the same compound, the GI50 (NCI/ADR-RES) was 77.4 µM (inactive), the GI50 (OVCAR-3) was > 100 µM (inactive) and the GI50 (OVCAR-4) was > 100 µM (inactive). For the same compound, the GI50 (OVCAR-5) was > 100 µM (inactive), the GI50 (OVCAR-8) was > 100 µM (inactive) and the GI50 (PC-3) was 97.1 µM (inactive). The GI50 (RPMI-8226) was 17.4 µM (inactive), the GI50 (SF-268) was > 100 µM (inactive) and the GI50 (SF-295) was > 100 µM (inactive). The GI50 (SF-539) was > 100 µM (inactive), the GI50 (SK-MEL-28) was > 100 µM (inactive) and the GI50 (SK-MEL-2) was > 100 µM (inactive). For the same compound, the GI50 (SK-MEL-5) was 40 µM (inactive), the GI50 (SK-OV-3) was > 100 µM (inactive) and the GI50 (SN12C) was > 100 µM (inactive). The GI50 (SNB-19) was > 100 µM (inactive), the GI50 (SNB-75) was 76.7 µM (inactive) and the GI50 (SR) was 23.7 µM (inactive). For the same compound, the GI50 (SW-620) was > 100 µM (inactive), the GI50 (T47D) was 70.6 µM (inactive) and the GI50 (TK-10) was > 100 µM (inactive). The GI50 (U-251) was > 100 µM (inactive), the GI50 (UACC-257) was > 100 µM (inactive) and the GI50 (UACC-62) was > 100 µM (inactive). The GI50 (UO-31) was 63.1 µM (inactive).
